Source: ChEMBL document CHEMBL5126603, “Discovery of Clinical Candidate CHF-6366: A Novel Super-soft Dual Pharmacology Muscarinic Antagonist and β2 Agonist (MABA) for the Inhaled Treatment of Respiratory Diseases” (J Med Chem, 2022)

Columns and labels:
Trachea [1] = experiment: In vivo bifunctional antagonist activity at muscarinic M3 receptor /agonist activity at beta-2 adrenoceptor in Dunkin-Hartley guinea pig trachea assessed as time duration for inhibition of carbachol induced contraction measured […]; type: functional, Cavia porcellus
Trachea [2] = experiment: In vivo bifunctional antagonist activity at muscarinic M3 receptor /agonist activity at beta-2 adrenoceptor in Dunkin-Hartley guinea pig trachea assessed as inhibition of carbachol induced contraction; type: functional, tissue-based; details: Cavia porcellus
[3] = Metabolic stability in rat plasma assessed as half life at 5 uM measured upto 120 mins by LC-MS/MS analysis; type: ADME, cell-free
[4] = Metabolic stability in human lung S9 fraction assessed as half life at 1 uM measured after 0 to 60 mins in presence of NADPH by LC-MS/MS analysis; type: ADME, subcellular; details: time 0-60 min
[5] = Metabolic stability in human plasma assessed as half life at 5 uM measured upto 120 mins by LC-MS/MS analysis; type: ADME, cell-free
Trachea [6] = experiment: (§1) Bifunctional antagonist activity at muscarinic M3 receptor /agonist activity at beta-2 adrenoceptor in Dunkin-Hartley guinea pig trachea assessed as inhibition of acetylcholine induced bronchoconstriction at 1 nmol/Kg, IT(Intratracheal) measured after 1 hr by Konzett-Roessler methodology relative to control; type: functional; details: Cavia porcellus
[7] = In vivo antagonist activity at muscarinic M3 receptor in Dunkin-Hartley guinea pig trachea assessed as inhibition of acetylcholine-induced bronchoconstriction at 3 nmol/Kg, IT(Intratracheal) measured after 1 hr in presence of ICI-118551 by Konzett-Roessler methodology relative to control; type: functional; details: Cavia porcellus
Trachea [8] = experiment: as §1, with “of acetylcholine-induced” for “of acetylcholine induced”, “at 3” for “at 1”; type: functional; details: Cavia porcellus
[9] = Metabolic stability in Dunkin-Hartley guinea pig lung S9 fraction assessed as half life at 1 uM measured after 0 to 60 mins in presence of NADPH by LC-MS/MS analysis; type: ADME, subcellular, Cavia porcellus; details: time 0-60 min
[10] = Metabolic stability in Dunkin-Hartley guinea pig plasma assessed as half life at 5 uM measured upto 120 mins by LC-MS/MS analysis; type: ADME, cell-free, Cavia porcellus
[11] = Metabolic stability in rat lung S9 fraction assessed as half life at 1 uM measured after 0 to 60 mins in presence of NADPH by LC-MS/MS analysis; type: ADME, subcellular; details: time 0-60 min
[12] = In vivo agonist activity at beta-2 adrenoceptor in Dunkin-Hartley guinea pig trachea assessed as inhibition of histamine-induced bronchoconstriction at 3 nmol/Kg, IT(Intratracheal) measured after 24 hr by Konzett-Roessler methodology relative to control; type: functional; details: Cavia porcellus
[13] = In vivo antagonist activity at muscarinic M3 receptor in Dunkin-Hartley guinea pig trachea assessed as inhibition of acetylcholine induced bronchoconstriction at 1 nmol/Kg, IT(Intratracheal) measured after 1 hr in presence of ICI-118551 by Konzett-Roessler methodology relative to control; type: functional; details: Cavia porcellus
Trachea [14] = experiment: as §1, with “after 24” for “after 1”; type: functional; details: Cavia porcellus
[15] = In vivo agonist activity at beta-2 adrenoceptor in Dunkin-Hartley guinea pig trachea assessed as inhibition of histamine induced bronchoconstriction at 1 nmol/Kg, IT(Intratracheal) measured after 1 hr by Konzett-Roessler methodology relative to control; type: functional; details: Cavia porcellus
[16] = In vivo antagonist activity at muscarinic M3 receptor in Dunkin-Hartley guinea pig trachea assessed as inhibition of acetylcholine-induced bronchoconstriction at 3 nmol/Kg, IT(Intratracheal) measured after 24 hr in presence of ICI-118551 by Konzett-Roessler methodology relative to control; type: functional; details: Cavia porcellus
Trachea [17] = experiment: as §1, with “of acetylcholine-induced” for “of acetylcholine induced”, “at 3” for “at 1”, “after 24” for “after 1”; type: functional; details: Cavia porcellus
[18] = In vivo agonist activity at beta-2 adrenoceptor in Dunkin-Hartley guinea pig trachea assessed as inhibition of histamine-induced bronchoconstriction at 3 nmol/Kg, IT(Intratracheal) measured after 1 hr by Konzett-Roessler methodology relative to control; type: functional; details: Cavia porcellus
[19] = In vivo antagonist activity at muscarinic M3 receptor in Dunkin-Hartley guinea pig trachea assessed as inhibition of acetylcholine induced bronchoconstriction at 1 nmol/Kg, IT(Intratracheal) measured after 24 hr in presence of ICI-118551 by Konzett-Roessler methodology relative to control; type: functional; details: Cavia porcellus
[20] = In vivo agonist activity at beta-2 adrenoceptor in Dunkin-Hartley guinea pig trachea assessed as inhibition of histamine induced bronchoconstriction at 1 nmol/Kg, IT(Intratracheal) measured after 24 hr by Konzett-Roessler methodology relative to control; type: functional; details: Cavia porcellus

**Q.** For `O=C(N[C@@H](c1ccccc1)c1cccc(OCc2cccc(C(=O)OCCCCNC[C@H](O)c3ccc(O)c4[nH]c(=O)ccc34)c2)c1)O[C@H]1CN2CCC1CC2`, which Time (Trachea [1]) is on record?
**A.** The Time was over 225 min.

**Q.** And the IC50 (Trachea [2])?
**A.** Its IC50 is 0.501 nM.

**Q.** And the half-life at 5 µM [3]?
**A.** The half-life at 5 µM was 103 min.

**Q.** What about the half-life at 1 µM [4] of the same molecule?
**A.** The half-life at 1 µM was 17.2 min.

**Q.** And the half-life at 5 µM [5]?
**A.** Its half-life at 5 µM is under 5 min.

**Q.** Which results are given for `O=C(N[C@@H](c1ccccc1)c1cccc(OCc2nc(C(=O)OCCCCNC[C@H](O)c3ccc(O)c4[nH]c(=O)ccc34)co2)c1)O[C@H]1CN2CCC1CC2`?
**A.** Time (Trachea [1]): >270 min; IC50 (Trachea [2]): 0.251 nM; inhibition in vivo at 0.001 µmol/kg (Trachea [6]): 70%; inhibition in vivo at 0.003 µmol/kg [7]: 96.1%; half-life at 5 µM [3]: < 5 min; inhibition in vivo at 0.003 µmol/kg (Trachea [8]): 97.2%; half-life at 1 µM [9]: > 120 min; half-life at 5 µM [10]: 77.9 min; half-life at 1 µM [11]: 120 min; half-life at 1 µM [4]: 35 min; inhibition in vivo at 0.003 µmol/kg [12]: 49.9%; inhibition in vivo at 0.001 µmol/kg [13]: 65.5%; inhibition in vivo at 0.001 µmol/kg (Trachea [14]): 31.9%; inhibition in vivo at 0.001 µmol/kg [15]: 67.7%; inhibition in vivo at 0.003 µmol/kg [16]: 37.2%; inhibition in vivo at 0.003 µmol/kg (Trachea [17]): 58.8%; half-life at 5 µM [5]: < 5 min; inhibition in vivo at 0.003 µmol/kg [18]: 97.5%; inhibition in vivo at 0.001 µmol/kg [19]: 23.8%

**Q.** Which Time (Trachea [1]) does the source give for `COc1cc(C(=O)OCCCCNC[C@H](O)c2ccc(O)c3[nH]c(=O)ccc23)ccc1COc1cccc([C@@H](NC(=O)O[C@H]2CN3CCC2CC3)c2ccccc2)c1` here?
**A.** Its Time is under 135 min.

**Q.** What about the IC50 (Trachea [2]) of the same molecule?
**A.** The IC50 was 1.26 nM.

**Q.** What about the half-life at 5 µM [3] of the same molecule?
**A.** The half-life at 5 µM was 12 min.

**Q.** And the half-life at 5 µM [10]?
**A.** The half-life at 5 µM was 83.5 min.

**Q.** What about the half-life at 1 µM [4] of the same molecule?
**A.** The half-life at 1 µM was 89.3 min.

**Q.** And the half-life at 5 µM [5]?
**A.** The half-life at 5 µM was 21 min.

**Q.** What does the source list for `O=C(N[C@@H](c1ccccc1)c1cccc(OCc2ccc(C(=O)OCCCCNC[C@H](O)c3ccc(O)c4[nH]c(=O)ccc34)o2)c1)O[C@H]1CN2CCC1CC2`?
**A.** Time (Trachea [1]): >225 min; IC50 (Trachea [2]): 0.2 nM; inhibition in vivo at 0.001 µmol/kg (Trachea [6]): 72%; inhibition in vivo at 0.003 µmol/kg [7]: 73.7%; half-life at 5 µM [3]: 7 min; inhibition in vivo at 0.003 µmol/kg (Trachea [8]): 78.3%; half-life at 1 µM [9]: > 120 min; half-life at 5 µM [10]: > 120 min; half-life at 1 µM [11]: 120 min; half-life at 1 µM [4]: 32 min; inhibition in vivo at 0.003 µmol/kg [12]: 48.7%; inhibition in vivo at 0.001 µmol/kg [13]: 64.7%; inhibition in vivo at 0.001 µmol/kg (Trachea [14]): 34.2%; inhibition in vivo at 0.001 µmol/kg [15]: 67.8%; inhibition in vivo at 0.003 µmol/kg [16]: 43.5%; inhibition in vivo at 0.003 µmol/kg (Trachea [17]): 60.6%; half-life at 5 µM [5]: < 5 min; inhibition in vivo at 0.003 µmol/kg [18]: 84.5%; inhibition in vivo at 0.001 µmol/kg [19]: 9.4%; inhibition in vivo at 0.001 µmol/kg [20]: 48.9%

**Q.** What does the source list for `O=C(NC(c1ccccc1)c1cccc(OCc2ccc(C(=O)OCCCCNC[C@H](O)c3ccc(O)c4[nH]c(=O)ccc34)cc2)c1)O[C@H]1CN2CCC1CC2` (mixture of isomers)?
**A.** Time (Trachea [1]): >270 min; IC50 (Trachea [2]): 0.0794 nM; half-life at 5 µM [3]: < 5 min; half-life at 5 µM [5]: < 5 min
